Like-named read-outs stand apart in the source and are kept apart here.
Tests used:
[1] = molecular target: protein DCR1 (Mus musculus, UniProt Q91X52); assay: Dicarbonyl reductase activity assay: substrate specificity and rate constants (NAD(P)H oxidation at 340 nm); settings: for activity (as substrate): Example 5, result in words
Experimental: (§1) The enzyme activity assay method is not particularly restricted, and it may be based on the activity assay method for mouse carbonyl reductase (CR) (Eur. J. Biochem. 22, 381-387(1995)). The enzyme used here was an expressed recombinant enzyme. • (a) Substrate specificity: In order to determine the substrate specificity, there may be used a hydrocarbon system including various ketone, aldehyde and ester groups, or an aromatic compound.
• (1) This was assayed under the following conditions. The reaction mixture (total: 2.0 ml) comprised an 80 mM potassium phosphate solution (pH 7.0 or 6.0), 0.1 mM NADPH or NADH and a carbonyl substrate or enzyme (50 µl) (10.1 µg or 3.7 µg of glomerin B). The oxidation rate for NAD(P)H was measured at 340 nm.

[2] = molecular target: protein hDCR1 (Homo sapiens, UniProt Q7Z4W1); assay: Dicarbonyl reductase activity assay: substrate specificity (NAD(P)H oxidation at 340 nm); settings: against a reference of 100 for diacetyl
Experimental: as §1
The reaction mixture (total: 2.0 ml) comprised an 80 mM potassium phosphate solution (pH 7.0 or 6.0), 0.1 mM NADPH or NADH and a carbonyl substrate or enzyme (50 µl) (10.1 µg or 3.7 µg of hDCR1).
The oxidation rate for NAD(P)H was measured at 340 nm.
One unit of enzyme activity was defined as that which catalyzed oxidation of 1 µmol of NAD(P)H in one minute at 25°C.

[3] = molecular target: T1, mouse DCR1 (Mus musculus, UniProt Q91X52); assay: Inhibition of the enzyme reaction; format: biochemical; settings: read-out: Inhibition (%) CDR1
T1 construct: made in house; host or cells: E. coli K12
From the text: (§2) Two enzymes were used here, mouse DCR1 and hamster liver diacetyl reductase (Hamster DR).

[4] = molecular target: T2, hamster liver diacetyl reductase (Hamster DR) (Mesocricetus auratus, UniProt Q91XV4); assay: Inhibition of the enzyme reaction; format: biochemical; settings: read-out: Inhibition (%) Hamster DR
T2 construct: from tissue; host or cells: hamster liver
From the text: as §2

[5] = substrate concentration 1,000 μM, against a reference of 100 for diacetyl
[6] = substrate concentration 5,000 μM, against a reference of 100 for diacetyl
[7] = substrate concentration 5,000 μM
[8] = substrate concentration 1,000 μM
[9] = substrate concentration 20 μM, against a reference of 100 for diacetyl
[10] = substrate concentration 2,000 μM
[11] = substrate concentration 500 μM, against a reference of 100 for diacetyl
[12] = substrate concentration 100 μM, against a reference of 100 for diacetyl

protein hDCR1, sequence (Q7Z4W1 whole entry): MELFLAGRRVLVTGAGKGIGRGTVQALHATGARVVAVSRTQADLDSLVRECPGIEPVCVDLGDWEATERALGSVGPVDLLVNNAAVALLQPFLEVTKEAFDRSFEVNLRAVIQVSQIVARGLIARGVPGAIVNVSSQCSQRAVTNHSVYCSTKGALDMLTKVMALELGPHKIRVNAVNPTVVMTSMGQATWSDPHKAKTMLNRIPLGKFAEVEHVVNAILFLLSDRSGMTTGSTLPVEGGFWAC
T1 sequence (Q91X52 whole entry): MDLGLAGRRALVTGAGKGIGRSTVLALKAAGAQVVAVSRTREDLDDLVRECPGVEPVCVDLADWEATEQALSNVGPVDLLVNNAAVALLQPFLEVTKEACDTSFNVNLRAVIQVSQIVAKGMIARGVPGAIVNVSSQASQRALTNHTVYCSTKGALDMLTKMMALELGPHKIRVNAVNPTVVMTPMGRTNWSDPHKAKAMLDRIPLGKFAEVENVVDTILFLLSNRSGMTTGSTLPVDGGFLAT
protein DCR1, sequence (Q91X52 whole entry): as above
T2 sequence (Q91XV4 whole entry): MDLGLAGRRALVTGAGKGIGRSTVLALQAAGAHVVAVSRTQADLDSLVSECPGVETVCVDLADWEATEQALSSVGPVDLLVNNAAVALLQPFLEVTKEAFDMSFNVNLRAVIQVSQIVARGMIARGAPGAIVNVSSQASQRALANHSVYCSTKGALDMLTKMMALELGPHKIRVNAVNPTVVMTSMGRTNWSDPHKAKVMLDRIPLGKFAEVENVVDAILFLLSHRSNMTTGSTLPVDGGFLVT

## O=CC(O)CO (racemic) [DL-Glyceraldehyde]
[1]; [5]
  RA (%) relative activity: 10.4%
[1]; [6]
  RA (%) relative activity: 40%
[2]; [7]
  RA (%) relative activity: 25%

## O=C1CCCCC1=O [1,2-Cyclohexanedione]
[1]; [5]
  RA (%) relative activity: 10.9%
[2]; [8]
  RA (%) relative activity: 27%

## O=C1C=Cc2ccccc2C1=O [1,2-Naphtoquinone]
[1]; [9]
  RA (%) relative activity: 47%

## O=C1CCC(=O)CC1 [1,4-Cyclohexanedione]
[1]; [5]
  RA (%) relative activity: 0%

## CCCCCCCCC=O [1-Nonanal]
[1]; substrate concentration 50 μM, against a reference of 100 for diacetyl
  RA (%) relative activity: 0.005%

## O=C1c2ccccc2C(=O)C1c1ccccc1 [1-Phenyl-1,3-indanedione]
[1]; substrate concentration 400 μM, against a reference of 100 for diacetyl
  RA (%) relative activity: 0.6%

## CCC=O [1-Propanal]
[1]; [6]
  RA (%) relative activity: 0.5%

## CC(=O)CC(C)=O [2,4-Pentanedione]
[1]; [5]
  RA (%) relative activity: 0%
[2]; [8]
  RA (%) relative activity: 0%

## CC(=O)CCC(C)=O [2,5-Hexanedione]
[1]; [5]
  RA (%) relative activity: 0%

## CCC(C)=O [2-Butanone]
[1]
  RA (%) relative activity: 0%

## O=C1C=CCCC1 [2-Cyclohexen-1-one]
[1]; [5]
  RA (%) relative activity: 1.3%

## O=C(O)C(=O)[C@@H](O)[C@H](O)[C@@H](O)CO [2-Ketogulonate]
[1]; [5]
  RA (%) relative activity: 0%

## O=Cc1ccccc1[N+](=O)[O-] [2-Nitrobenzaldehyde]
[1]; substrate concentration 1,500 μM, against a reference of 100 for diacetyl
  RA (%) relative activity: 3.9%
[2]; [8]
  RA (%) relative activity: 99%

## OC1C=CCCC1 (centres unmarked) [2-cyclohexen-1-ol]
[1]
  activity (as substrate): no activity

## O=CC(=O)C[C@H](O)[C@H](O)CO [3-Deoxyglucosone]
[1]; substrate concentration 2,000 μM, against a reference of 100 for diacetyl
  RA (%) relative activity: 0.4%
[2]; [10]
  RA (%) relative activity: 5%

## O=Cc1cccc([N+](=O)[O-])c1 [3-Nitrobenzaldehyde]
[1]; substrate concentration 3,000 μM, against a reference of 100 for diacetyl
  RA (%) relative activity: 3.3%

## O=C(c1ccccc1)c1ccncc1 [4-Benzoylpyridine]
[1]; [5]
  RA (%) relative activity: 7%
[2]; [8]
  RA (%) relative activity: 39%

## NC(=O)c1ccc(O)cc1 [4-Hydroxybenzamide]
[3]
  inhibition at 1000 µM: 44%
[4]
  inhibition at 1000 µM: 19%

## CC(=O)c1ccc([N+](=O)[O-])cc1 [4-Nitroacetophenone]
[1]
  activity (as substrate): no activity
[1]; [5]
  RA (%) relative activity: 0%
[2]; [8]
  RA (%) relative activity: 0%

## O=Cc1ccc([N+](=O)[O-])cc1 [4-Nitrobenzaldehyde]
[1]; [5]
  RA (%) relative activity: 3.3%
[2]; [8]
  RA (%) relative activity: 69%

## C[C@]12CCC(=O)C[C@@H]1CC[C@@H]1[C@@H]2CC[C@]2(C)C(=O)CC[C@@H]12 [5α-Androstane-3,17-dione]
[1]
  RA (%) relative activity: 0.0%
[2]; substrate concentration 50 μM
  RA (%) relative activity: 0%

## C[C@]12CCC(=O)C[C@@H]1CC[C@@H]1[C@@H]2CC[C@]2(C)[C@@H](O)CC[C@@H]12 [5α-DHT]
[2]; substrate concentration 50 μM
  RA (%) relative activity: 0%

## C[C@]12CCC(=O)C[C@H]1CC[C@@H]1[C@@H]2CC[C@]2(C)C(=O)CC[C@@H]12 [5β-Androstane-3,17-dione]
[1]
  RA (%) relative activity: 0.0%

## CC(=O)[C@H]1CC[C@H]2[C@@H]3CC[C@@H]4CC(=O)CC[C@]4(C)[C@H]3CC[C@]12C [5β-Pregnane-3,20-dione]
[1]; [9]
  RA (%) relative activity: 0.0%

## C[C@]12CCC(=O)C[C@H]1CC[C@@H]1[C@@H]2C(=O)C[C@@]2(C)[C@H]1CC[C@]2(O)C(=O)CO [5β-dihydrocortisone]
[2]; substrate concentration 20 μM
  RA (%) relative activity: 0%

## CC(=O)[C@@]1(O)CC[C@H]2[C@@H]3CCC4=CC(=O)CC[C@]4(C)[C@H]3CC[C@@]21C [17α-hydroxyprogesterone]
[1]; [9]
  RA (%) relative activity: 0.0%
[2]; substrate concentration 50 μM
  RA (%) relative activity: 0%

## CC=O [Acetaldehyde]
[1]; [6]
  RA (%) relative activity: 1.8%

## CC(=O)c1ccc(S(=O)(=O)NC(=O)NC2CCCCC2)cc1 [Acetohexamide]
[1]; [5]
  RA (%) relative activity: 0%

## CC(=O)C(C)O (centres unmarked) [Acetoin]
[1]; [6]
  RA (%) relative activity: 7.4%
[2]; [7]
  RA (%) relative activity: 13%

## CC(=O)CO [Acetol]
[1]; [5]
  RA (%) relative activity: 0.8%

## Nc1ccccc1C(=O)O [Anthranilic acid]
[3]
  inhibition at 100 µM: 0%
[4]
  inhibition at 100 µM: 42%

## CCC1(CC)C(=O)NC(=O)NC1=O [Barbital]
[3]
  inhibition at 1000 µM: 0%
[4]
  inhibition at 1000 µM: 5%

## CC(=O)C=Cc1ccccc1 [Benzalacetone]
[1]; [11]
  RA (%) relative activity: 0%

## NC(=O)c1ccccc1 [Benzamide]
[3]; compound concentration 1 mM
  inhibition at 1000 µM: 18%
[4]; compound concentration 1 mM
  inhibition at 1000 µM: 43%

## O=C(C(=O)c1ccccc1)c1ccccc1 [Benzil]
[1]; [12]
  RA (%) relative activity: 0%

## O=C(O)c1ccccc1 [Benzoic acid]
[3]
  inhibition at 100 µM: 32%
[4]
  inhibition at 100 µM: 59%

## CC12CCC(C(=O)C1=O)C2(C)C (centres unmarked) [Camphorquinone]
[1]; [11]
  RA (%) relative activity: 6%
[2]; substrate concentration 500 μM
  RA (%) relative activity: 23%

## C[C@]12C[C@H](O)[C@H]3[C@@H](CCC4=CC(=O)CC[C@@]43C)[C@@H]1CC[C@@H]2C(=O)C=O [Corticosterone-21-al]
[1]; [9]
  RA (%) relative activity: 0.0%

## C[C@]12C[C@H](O)[C@H]3[C@@H](CCC4=CC(=O)CC[C@@]43C)[C@@H]1CC[C@@H]2C(=O)CO [Corticosterone]
[2]; substrate concentration 50 μM
  RA (%) relative activity: 0%

## C[C@]12CCC(=O)C=C1CC[C@@H]1[C@@H]2[C@@H](O)C[C@@]2(C)[C@H]1CC[C@]2(O)C(=O)C=O [Cortisol-21-al]
[1]; [9]
  RA (%) relative activity: 0.0%

## O=C[C@H](O)[C@@H](O)[C@H](O)[C@H](O)CO [D-Glucose]
[1]; substrate concentration 200,000 μM, against a reference of 100 for diacetyl
  RA (%) relative activity: 0%

## O=C[C@H](O)[C@@H](O)[C@H](O)[C@H](O)C(=O)O [D-Glucuronate]
[1]; [5]
  RA (%) relative activity: 0%

## C[C@@H](O)C=O [D-Lactoaldehyde]
[1]; [5]
  RA (%) relative activity: 0.6%

## COc1cccc2c1C(=O)c1c(O)c3c(c(O)c1C2=O)C[C@@](O)(C(C)=O)C[C@@H]3O[C@H]1C[C@H](N)[C@H](O)[C@H](C)O1 [Daunorubicin]
[1]; [11]
  RA (%) relative activity: 1.1%
[2]; substrate concentration 500 μM
  RA (%) relative activity: 0%

## O=C1O[C@H]([C@@H](O)CO)C(=O)C1=O [Dehydroascorbic acid]
[1]; [11]
  RA (%) relative activity: 0%

## COC(=O)CCC(=O)C(=O)OC [Dimethyl-2-oxoglutarate]
[2]; [10]
  RA (%) relative activity: 63%

## O=C1NC(=O)C(c2ccccc2)(c2ccccc2)N1 [Diphenlhydantoin]
[3]
  inhibition at 100 µM: 17%
[4]
  inhibition at 100 µM: 2%

## CCOC(=O)CC(C)=O [Ethyl acetoacetate]
[1]; [5]
  RA (%) relative activity: 0%

## O=CCO [Glycolaldehyde]
[1]; [6]
  RA (%) relative activity: 0.9%

## O=CC=O [Glyoxal]
[1]; [6]
  RA (%) relative activity: 0%

## CC1=CC(=O)c2ccccc2C1=O [Menadione (Vitamin K3), Menadione]
[1]
  activity (as substrate): no activity
[1]; [12]
  RA (%) relative activity: 0.1%
[2]; substrate concentration 100 μM
  RA (%) relative activity: 0%

## COC(=O)CC(C)=O [Methyl acetoacetate]
[1]; [5]
  RA (%) relative activity: 0.2%

## CC(=O)C=O [Methylglyoxal]
[1]; [5]
  RA (%) relative activity: 2.3%
[1]; [6]
  RA (%) relative activity: 7.9%
[2]; [7]
  RA (%) relative activity: 20%

## C=CCN1CC[C@]23c4c5ccc(O)c4O[C@H]2C(=O)CC[C@@]3(O)[C@H]1C5 [Naloxone]
[1]; [5]
  RA (%) relative activity: 0%

## CCCCC[C@H](O)/C=C/[C@H]1[C@H](O)CC(=O)[C@@H]1C/C=C\CCCC(=O)O [PGE2]
[1]; [5]
  RA (%) relative activity: 0.0%

## O=CC(=O)c1ccccc1 [Phenylglyoxal]
[1]; [5]
  RA (%) relative activity: 3.9%
[2]; [8]
  RA (%) relative activity: 35%

## O=C(O)C(=O)Cc1ccccc1 [Phenylpyruvic acid]
[1]; [5]
  RA (%) relative activity: 0.5%

## CCC(=O)c1ccccc1 [Propiophenone]
[1]; [5]
  RA (%) relative activity: 0%

## O=Cc1cccnc1 [Pyridine-3-aldehyde]
[1]; [5]
  RA (%) relative activity: 4%
[2]; [8]
  RA (%) relative activity: 27%

## O=Cc1ccncc1 [Pyridine-4-aldehyde]
[1]; [6]
  RA (%) relative activity: 13.7%
[2]; [8]
  RA (%) relative activity: 27%

## CCOC(=O)C(C)=O [Pyruvic acid ethyl ester]
[1]; [5]
  RA (%) relative activity: 35.2%
[2]; [8]
  RA (%) relative activity: 33%

## COC(=O)C(C)=O [Pyruvic acid methyl ester]
[1]; [5]
  RA (%) relative activity: 23.3%
[2]; [8]
  RA (%) relative activity: 46%

## CC(=O)C(=O)O [Pyruvic acid]
[1]; [6]
  RA (%) relative activity: 0%

## O[C@H]1CCc2ccccc21 [S-indan-1-ol]
[1]
  activity (as substrate): no activity

## C[C@]12CC[C@@H](O)C[C@H]1CC[C@@H]1[C@@H]2[C@@H](O)C[C@]2(C)[C@@H](C(=O)CO)CC[C@@H]12 [Tetrahydrocorticosterone]
[1]
  RA (%) relative activity: 0.0%

## O=C(O)CCC(=O)C(=O)O [α-Ketoglutaric acid]
[1]; [5]
  RA (%) relative activity: 0%

## Indolecarboaldehyde
[1]; [5]
  RA (%) relative activity: 0%

## Phenyl-2-butanone
[1]; [5]
  RA (%) relative activity: 0.2%
